target: T1, Type-1 angiotensin II receptor (Bos taurus, UniProt P25104); assay: Displacement of [125I]angiotensin 2 from type-1 angiotensin 2 receptor in Bos taurus (bovine) adrenal cortical membrane; settings: read-out: IC50
T1 sequence (P25104 whole entry): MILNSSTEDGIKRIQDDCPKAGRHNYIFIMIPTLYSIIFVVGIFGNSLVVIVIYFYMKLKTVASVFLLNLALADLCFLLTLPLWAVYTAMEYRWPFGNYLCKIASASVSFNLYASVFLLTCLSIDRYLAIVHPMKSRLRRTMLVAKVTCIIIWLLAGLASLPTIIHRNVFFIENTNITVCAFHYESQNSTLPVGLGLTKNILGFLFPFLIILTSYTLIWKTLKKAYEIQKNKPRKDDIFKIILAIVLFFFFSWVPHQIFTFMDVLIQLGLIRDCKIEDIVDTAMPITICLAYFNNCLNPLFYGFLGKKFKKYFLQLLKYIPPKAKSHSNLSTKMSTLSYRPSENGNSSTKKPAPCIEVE

Compound | IC50
CCCCc1nc2cccc(O)c2n1Cc1ccc(-c2ccccc2-c2nn[nH]n2)cc1 | 1100 nM
CCCCc1nc2c(C(=O)OC)cccc2n1Cc1ccc(-c2ccccc2-c2nn[nH]n2)cc1 | 7200 nM
CCCCc1nc2ccc(C(=O)O)cc2n1Cc1ccc(-c2ccccc2-c2nn[nH]n2)cc1 | 9000 nM
CCCCc1nc2cc(C(=O)O)ccc2n1Cc1ccc(-c2ccccc2-c2nn[nH]n2)cc1 | 5500 nM
CCCCc1nc2ccc(C(=O)OC)cc2n1Cc1ccc(-c2ccccc2-c2nn[nH]n2)cc1 | 440 nM
CCCCc1nc2ccccc2n1Cc1ccc(-c2ccccc2-c2nn[nH]n2)cc1 | 900 nM
CCCCc1nc2cccc(C(=O)OC)c2n1Cc1ccc(-c2ccccc2-c2nn[nH]n2)cc1 | 320 nM
CCCCc1nc2cccc(COC)c2n1Cc1ccc(-c2ccccc2-c2nn[nH]n2)cc1 | 600 nM
CCCCc1nc2cccc(C(=O)OCC)c2n1Cc1ccc(-c2ccccc2-c2nn[nH]n2)cc1 | 1400 nM
CCCCc1nc2cc(Cl)cc(C(=O)OC)c2n1Cc1ccc(-c2ccccc2-c2nn[nH]n2)cc1 | 440 nM
CCCCc1nc2cccc(CC(=O)OCC)c2n1Cc1ccc(-c2ccccc2-c2nn[nH]n2)cc1 | 250 nM
CCCCc1nc2ccccc2n1Cc1ccc(-c2ccccc2C(=O)O)cc1 | 1100 nM
CCCCc1nc2cccc(CO)c2n1Cc1ccc(-c2ccccc2-c2nn[nH]n2)cc1 | 450 nM
CCCCc1nc2cc(C)cc(C(=O)OC)c2n1Cc1ccc(-c2ccccc2-c2nn[nH]n2)cc1 | 870 nM
CCCCc1nc2cccc(C(=O)O)c2n1Cc1ccc(-c2ccccc2C(=O)O)cc1 | 660 nM
CCCCOC(=O)c1cccc2nc(CCCC)n(Cc3ccc(-c4ccccc4-c4nn[nH]n4)cc3)c12 | 1200 nM
CCCCc1nc2cccc(C(=O)O)c2n1Cc1ccc(-c2ccccc2-c2nnnn2C)cc1 | 3400 nM
CCCCc1nc2cccc(CC(=O)O)c2n1Cc1ccc(-c2ccccc2-c2nn[nH]n2)cc1 | 2600 nM
CCCCc1nc2cc(C(=O)OC)ccc2n1Cc1ccc(-c2ccccc2-c2nn[nH]n2)cc1 | 740 nM
CCCCc1nc2ccc(Cl)cc2n1Cc1ccc(-c2ccccc2-c2nn[nH]n2)cc1 | 3100 nM
CCCCc1nc2ccc(OC)cc2n1Cc1ccc(-c2ccccc2-c2nn[nH]n2)cc1 | 1100 nM
CCCCc1nc2cc(OC)ccc2n1Cc1ccc(-c2ccccc2-c2nn[nH]n2)cc1 | 910 nM
CCCCc1nc2cccc(OC)c2n1Cc1ccc(-c2ccccc2-c2nn[nH]n2)cc1 | 2800 nM
CCCCc1nc2cccc(C(=O)NC(C)C)c2n1Cc1ccc(-c2ccccc2-c2nn[nH]n2)cc1 | 540 nM
CCCCc1nc2cccc(C)c2n1Cc1ccc(-c2ccccc2-c2nn[nH]n2)cc1 | 330 nM
CCCCc1nc2cc(Cl)ccc2n1Cc1ccc(-c2ccccc2-c2nn[nH]n2)cc1 | 1500 nM
CCCCc1nc2ccc(C)c(C(=O)OCC)c2n1Cc1ccc(-c2ccccc2-c2nnn[nH]2)cc1 | 910 nM
CCCCc1nc2cccc(CN(C)C)c2n1Cc1ccc(-c2ccccc2-c2nn[nH]n2)cc1 | 2400 nM
CCCCc1nc2cc(C)cc(C(=O)O)c2n1Cc1ccc(-c2ccccc2-c2nn[nH]n2)cc1 | 1300 nM
CCCCc1nc2ccc(C)c(C(=O)O)c2n1Cc1ccc(-c2ccccc2-c2nn[nH]n2)cc1 | 340 nM

same assay, conditions: read-out: pIC50 (converted)

Compound | IC50
CCCCc1nc2cc(C(=O)O)ccc2n1Cc1ccc(-c2ccccc2-c2nn[nH]n2)cc1 | 5620 nM
CCCCc1nc2ccccc2n1Cc1ccc(-c2ccccc2C(=O)O)cc1 | 110 nM
CCCCOC(=O)c1cccc2nc(CCCC)n(Cc3ccc(-c4ccccc4-c4nn[nH]n4)cc3)c12 | 1300 nM
CCCCc1nc2cccc(CC(=O)O)c2n1Cc1ccc(-c2ccccc2-c2nn[nH]n2)cc1 | 2820 nM
CCCCc1nc2ccc(C)c(C(=O)O)c2n1Cc1ccc(-c2ccccc2-c2nn[nH]n2)cc1 | 328 nM
